According to US5045530A, “Pharmaceutical preparations” (priority 1986, dated 1991):
Several values for one entry are separate records, joined by “and”; a condition that tells them apart may be missing. Equal values may be shown once. Read-outs that look alike come from different tables or passages of the source.

Tests used:
[1] = critical micellization concentration (cmc); type: physicochemical
[2] = hydrodynamic (Stokes) radius / size of micelles and vesicles, inelastic light scattering; type: physicochemical
[3] = target: B. subtilis DNA polymerase III (Bacillus subtilis, UniProt P13267); assay: inhibition of DNA polymerase III by micellarly included Hg(CN)2 and Hg(CN)2 ascorbate; type: biochemical; settings: micellarly included Hg(CN)2 / Hg(CN)2 ascorbate in the tenside named
Protocol: Analogously to example 2 10 mg Hg(CN)2 and 40 mg Na ascorbate at pH 7.0 are dissolved in 10 ml phosphate buffer. The suspension is subjected to an ultrasonic treatment at 0° C. for 5 min, slowly heated to 20° C. and centrifuged to a 10% (^w /w) linear glycerol gradient in a preparative ultracentrifuge at 1000 xg for 6 hours (20° C., Polyalomer tubes).
The inhibitor concentrations are given in 50% of the complete inhibition. The assay which was used is that according to Clements, J; D'Ambrosio, J; Brown, N.C; J.Biol.Chem. (1975) 250, 522 and Wright, G.E.; Brown, N.C; Biochem. Biophys. Acta (1976) 432, 37.

influenza A strains [4] = settings: amantadine on its own, in vitro; cited from earlier work
influenza A virus = type: cell-based
influenza virus type B = assay: inhibition of influenza B in vitro; type: cell-based
Protocol: Amantadine (1-adamantanamine-HCl) has a particular pharmadynamic action against influenza viruses (class A). The replication of most influenza A strains is inhibited in vitro between 0.2-0.6 μg/ml. Micellarly included amantadine in cationic micelles, in particular of the form (Het≡N--(CH2)x --CH3)Y⊖, effect a reduction of the concentration of pharmaceutical active substance to 0.05 μg/ml amantadine, measured by Hayden et al. (Plaque inhibition assay for drug susceptibility resting of influenza viruses. Antimicrob. Ag. Chemother. 1980, 17: […]; Grunert et al.; Sensitivity of influenza A/New Jersey 18/76/(Hswl-Nl) virus to amantadine HCl, J. Inf. Dis. 1977, 136, 297-300).
With a concentration of 0.01% by weight of amantadine for influenza virus type B corresponding to a concentration of 0.5 μg/ml pharmaceutical active substance in vitro.

influenza A strains [5] = type: cell-based, influenza virus type A
[6] = micellar incorporation of active substances by dialysis, extinction at 260 nm; type: physicochemical; settings: hexadecylpyridinium chloride micelles, 20° C., pH 5.5
[7] = tested on: influenza virus, subgroup A2; Herpes simplex virus HSV I-III; type: cell-based; settings: monolayer cells infected with Herpes simplex virus type 1 or influenza virus type A2; with N+-tensides of formula I and II
pyrimidine biosynthesis = assay: pyrimidine biosynthesis; settings: micellarly included
salivary secretion = settings: in vivo
fungus = assay: antifungal effect in combination with N-tensides; settings: combination with N+ tensides of formula I and II
adenosine-desaminase = target: T1, adenosine-desaminase (Homo sapiens, UniProt P00813); assay: antitumor activity of micellarly dissolved adenosine-desaminase inhibitors; settings: dissolved micellarly according to formula I and II
T1 sequence (P00813 1-363): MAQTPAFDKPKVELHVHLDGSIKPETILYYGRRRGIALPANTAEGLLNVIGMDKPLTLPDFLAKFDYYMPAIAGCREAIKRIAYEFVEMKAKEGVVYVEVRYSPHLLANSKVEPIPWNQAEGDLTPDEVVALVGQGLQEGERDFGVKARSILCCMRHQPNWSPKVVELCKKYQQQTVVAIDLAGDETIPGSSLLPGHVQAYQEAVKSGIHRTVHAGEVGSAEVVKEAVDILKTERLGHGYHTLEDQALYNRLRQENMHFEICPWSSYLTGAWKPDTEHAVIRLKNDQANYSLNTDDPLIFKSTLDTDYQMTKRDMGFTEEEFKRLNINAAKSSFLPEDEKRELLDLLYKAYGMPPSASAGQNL

[8] = in vivo; cited from earlier work

Chain of B. subtilis DNA polymerase III (P13267 whole entry): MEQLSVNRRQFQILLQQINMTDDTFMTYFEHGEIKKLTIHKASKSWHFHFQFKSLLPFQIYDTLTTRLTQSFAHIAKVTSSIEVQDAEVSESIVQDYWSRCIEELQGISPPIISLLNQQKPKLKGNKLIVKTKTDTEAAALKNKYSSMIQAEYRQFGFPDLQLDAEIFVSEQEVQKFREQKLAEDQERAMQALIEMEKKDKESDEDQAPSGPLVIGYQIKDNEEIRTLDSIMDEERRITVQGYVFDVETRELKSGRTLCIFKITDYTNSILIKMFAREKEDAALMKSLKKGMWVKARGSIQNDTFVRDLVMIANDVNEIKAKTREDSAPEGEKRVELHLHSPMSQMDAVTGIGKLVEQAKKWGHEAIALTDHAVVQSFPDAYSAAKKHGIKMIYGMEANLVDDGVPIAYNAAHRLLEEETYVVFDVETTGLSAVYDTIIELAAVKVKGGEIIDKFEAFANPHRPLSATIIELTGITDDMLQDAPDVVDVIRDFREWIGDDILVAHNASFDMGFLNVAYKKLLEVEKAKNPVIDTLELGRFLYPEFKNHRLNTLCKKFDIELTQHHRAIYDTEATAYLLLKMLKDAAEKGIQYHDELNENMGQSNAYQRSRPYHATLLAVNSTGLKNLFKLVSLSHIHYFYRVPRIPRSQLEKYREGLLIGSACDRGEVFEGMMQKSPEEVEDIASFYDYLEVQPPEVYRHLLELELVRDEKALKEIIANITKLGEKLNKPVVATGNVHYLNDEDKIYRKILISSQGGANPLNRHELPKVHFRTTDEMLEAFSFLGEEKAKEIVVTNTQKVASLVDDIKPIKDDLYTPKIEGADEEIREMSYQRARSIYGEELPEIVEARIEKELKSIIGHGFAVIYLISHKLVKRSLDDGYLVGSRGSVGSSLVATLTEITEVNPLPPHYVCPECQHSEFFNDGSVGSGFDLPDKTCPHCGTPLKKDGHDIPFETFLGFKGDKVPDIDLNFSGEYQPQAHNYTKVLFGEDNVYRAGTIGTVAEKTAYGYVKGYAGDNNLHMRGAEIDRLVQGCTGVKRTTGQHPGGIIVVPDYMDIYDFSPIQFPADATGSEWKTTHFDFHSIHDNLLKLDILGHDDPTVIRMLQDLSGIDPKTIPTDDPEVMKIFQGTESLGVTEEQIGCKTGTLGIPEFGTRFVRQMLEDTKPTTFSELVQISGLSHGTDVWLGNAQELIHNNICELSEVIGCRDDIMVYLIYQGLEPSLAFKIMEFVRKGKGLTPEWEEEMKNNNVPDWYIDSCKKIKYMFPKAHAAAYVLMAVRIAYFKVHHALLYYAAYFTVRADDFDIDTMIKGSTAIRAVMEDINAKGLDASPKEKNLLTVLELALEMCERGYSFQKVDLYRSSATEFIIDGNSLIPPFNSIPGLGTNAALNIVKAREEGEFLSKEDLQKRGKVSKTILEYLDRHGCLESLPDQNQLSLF

Compound: 2,5-Dimethyl-3-hexadecyl-thiazolium
- cmc × 10^-6 M ([1]; Table 2, HET≡N+-(CH2)x-CH3 Y-): 15.00 × 10^-6 M

Compound: 2,6-Dihydroxy-dodecyl-pyrimidinium
- cmc × 10^-6 M ([1]; Table 2, HET≡N+-(CH2)x-CH3 Y-): 1.90 × 10^-6 M

Compound: 2-Carboxamid-3-hexadecyl-1,4-pyridinium
- <RH> hydrodynamic radius ([2]; Table 3, counter ion Y- = NO3-): 440 Å

Compound: 2-Hydroxy,5-methyl,6-amino-hexadecyl-pyrimidinium
- cmc × 10^-6 M ([1]; Table 2, HET≡N+-(CH2)x-CH3 Y-): 1.00 × 10^-6 M

Compound: 2-Hydroxy,6-amino-hexadecyl-pyrimidinium
- cmc × 10^-6 M ([1]; Table 2, HET≡N+-(CH2)x-CH3 Y-): 2.00 × 10^-6 M

Compound: 2-carboxamid-3-dodecyl-1,4-pyridinium
- <RH> hydrodynamic radius ([2]; Table 3, counter ion Y- = NO3-): 366 Å

Compound: 3,5-bis[n-hexadecyloxy-carbonyl]-N-methyl-pyridinium
- competitive with [3]: dGTP

Compound: 3-Dodecyl-6-methyl-benzimidazolium
- cmc × 10^-6 M ([1]; Table 2, HET≡N+-(CH2)x-CH3 Y-): 7.30 × 10^-6 M

Compound: 3-Hexadecyl-5,6-dihydroxy-benzthiazolium
- cmc × 10^-6 M ([1]; Table 2, HET≡N+-(CH2)x-CH3 Y-): 7.90 × 10^-6 M

Compound: 3-Hexadecyl-6-methyl-benzimidazolium
- cmc × 10^-6 M ([1]; Table 2, HET≡N+-(CH2)x-CH3 Y-): 17.00 × 10^-6 M

Compound: 3-Hexadecylbenzimidazolium
- cmc × 10^-6 M ([1]; Table 2, HET≡N+-(CH2)x-CH3 Y-): 6.70 × 10^-6 M

Compound: 3-Hexadecylthiazolium
- cmc × 10^-6 M ([1]; Table 2, HET≡N+-(CH2)x-CH3 Y-): 0.91 × 10^-6 M

Compound: 3-[[(Dimethylamino)-carboxyl]oxyl]-1-hexadecyl-pyridinium
- competitive with [3]: dATP

Compound: 4-Methyl- -2-hexadecyl-pyrazolium
- cmc × 10^-6 M ([1]; Table 2, HET≡N+-(CH2)x-CH3 Y-): 0.70 × 10^-6 M

Compound: 5-Methyl-1-hexadecylimidazolium
- cmc × 10^-6 M ([1]; Table 2, HET≡N+-(CH2)x-CH3 Y-): 3.90 × 10^-6 M

Compound: 8-Ketohexadecylpyridinium
- competitive with [3]: dGTP

Compound: Cl.NC12CC3CC(CC(C3)C1)C2 [1-adamantaneamine HCl, 1-adamantanamine-HCl]
- concentration inhibiting replication of most influenza A strains (influenza A strains [4]): 0.2 to 0.6 µg/mL
- Inhibition, 10log (pfu/ml of the inhibitor)/(pfu/ml check) (influenza A virus): -1.11
- Titration of infection, Plaque forming units (influenza A virus): 2 × 10^6
- activity against influenza virus type B (influenza virus type B; amantadine on its own): practically no activity
- concentration showing inhibition of influenza virus type B (influenza virus type B; micellarly included in cationic tensides, 0.01% by weight of amantadine): 0.5 µg/mL
- concentration of active substance for inhibition (influenza A strains [5]): 0.05 µg/mL

Compound: CCCCCCCCCCCCCCCC[n+]1c(O)ncc(F)c1O [2,6-Dihydroxy,5-Fluor,hexadecyl-pyrimidinium]
- cmc × 10^-6 M ([1]; Table 2, HET≡N+-(CH2)x-CH3 Y-): 0.85 × 10^-6 M

Compound: CCCCCCCCCCCCCCCC[n+]1cc(F)c(O)cc1O [2,-4-Dihydroxy-5-Fluoro hexadecyl-pyridinium]
- <RH> hydrodynamic radius [2]: 210 and 150

Compound: CCCCCCCCCCCCCCCC[n+]1cc(C)c(O)cc1O [2,-4-Dihydroxy-5-methyl-hexadecyl-pyridinium]
- <RH> hydrodynamic radius [2]: 1000 and 1500

Compound: CCCCCCCCCCCCCCCC[n+]1ccnc(C(N)=O)c1 [2-Carboxamide-4-hexadecyl-1,4-diazinium]
- cmc × 10^-6 M ([1]; Table 2, HET≡N+-(CH2)x-CH3 Y-): 0.30 × 10^-6 M

Compound: CCCCCCCCCCCC[n+]1csc2ccccc21 [3-Dodocyl-benzthiazolium]
- cmc × 10^-6 M ([1]; Table 2, HET≡N+-(CH2)x-CH3 Y-): 10.90 × 10^-6 M

Compound: CCCCCCCCCCCCCCCCC(CCCCCCCCCCCCCCCC)c1cc[n+](C)cc1.[Cl-] [4-(17-tritriacontyl)-N-methylpyridinium chloride]
- competitive with [3]: dGTP

Compound: CCCCCCCCCCCC[n+]1ccccc1 [Dodecyl-pyridinium]
- cmc × 10^-6 M [1]: 1.52

Compound: O=c1[nH]c(=O)n([C@H]2C[C@H](O)[C@@H](CO)O2)cc1I [Idoxuridine, idoxuridine]
- Yield (%) of micellar incorporation ([6]; Table 1 experiment 1, Trifluoroamame 5, Idoxuridine […]100 ml): 95%
- Yield (%) of micellar incorporation ([6]; Table 1 experiment 2, Trifluoroamame 7.5, Idoxuridine 10.5 mg/100 ml): 98%
- Yield (%) of micellar incorporation ([6]; Table 1 experiment 3, Trifluoroamame 10.0, Idoxuridine 12.5 mg/100 ml): 98%
- Yield (%) of micellar incorporation ([6]; Table 1 experiment 4, Trifluoroamame 12.0, Idoxuridine […]100 ml): 98%
- Yield (%) of micellar incorporation ([6]; Table 1 experiment 5, Trifluoroamame 15.0, Idoxuridine 17.0 mg/100 ml): 97%
- Yield (%) of micellar incorporation ([6]; Table 1 experiment 6, Trifluoroamame 17.0, Idoxuridine 20.0 mg/100 ml): 96%
- Yield (%) of micellar incorporation ([6]; Table 1 experiment 7, Trifluoroamame 20.0, Idoxuridine 21.5 mg/100 ml): 98%
- Yield (%) of micellar incorporation ([6]; Table 1 experiment 8, Trifluoroamame 25.0, Idoxuridine 23.0 mg/100 ml): 100%
- Yield (%) of micellar incorporation ([6]; Table 1 experiment 9, Trifluoroamame 30.0, Idoxuridine 24.0 mg/100 ml): 100%
- Yield (%) of micellar incorporation ([6]; Table 1 experiment 10, Trifluoroamame 50.0, Idoxuridine 30.0 mg/100 ml): 100%
- lowering of the inhibition concentration compared with applications without quaternary ammonium bases [7]: 30%

Compound: O=C(O)C[C@H](NC(=O)CP(=O)(O)O)C(=O)O [N-(phosphonoacetyl)-aspartate]
- intensification of the effect on pyrimidine biosynthesis (blocking of the carbamylation of aspartate) (pyrimidine biosynthesis): 20 fold

Compound: CN1[C@@H]2CC[C@H]1C[C@@H](OC(=O)C(CO)c1ccccc1)C2 (stereo partly drawn) [atropine]
- intensification of the inhibitory effect on salivary secretion (salivary secretion): tenfold

Compound: Clc1ccccc1C(c1ccccc1)(c1ccccc1)n1ccnc1 [clotrimazole]
- intensification of the antifungal effect by N+ tensides (fungus): ≈ 35%

Compound: Nc1ccn([C@@H]2O[C@H](CO)[C@@H](O)[C@@H]2O)c(=O)n1 [cytarabine]
- lowering of the inhibition concentration compared with applications without quaternary ammonium bases [7]: 30%

Compound: Clc1ccc(COC(Cn2ccnc2)c2ccc(Cl)cc2Cl)cc1 (stereo not drawn) [econazole]
- intensification of the antifungal effect by N+ tensides (fungus): ≈ 35%

Compound: CCCCCCCCCCCCCCCC[n+]1ccccc1.[Cl-] [hexadecylpyridinium chloride, N-(n-hexadecyl)-pyridinium chloride, reference compound]
- RH (Å) (±5.0 Å) ([2]; pH 5.5): 45.0 and 50.5 and 60.0 and 65.0 and 71.5 and 75.0 and 78.0

Compound: Clc1ccc(COC(Cn2ccnc2)c2ccc(Cl)cc2Cl)c(Cl)c1 (stereo not drawn) [miconazole]
- intensification of the antifungal effect by N+ tensides (fungus): ≈ 35%

Compound: NC(=O)c1[nH]nc([C@@H]2O[C@H](CO)[C@@H](O)[C@H]2O)c1O [pyrazofurine]
- irreversible inhibition of pyrimidine biosynthesis (pyrimidine biosynthesis): 20%

Compound: CC(N)C12CC3CC(CC(C3)C1)C2.Cl (stereo not drawn) [rimantadine, α-methyl-1-adamantanemethylamine hydrochloride]
- dose with the same in vitro effect as the pure active substance (influenza A strains [5]): 0.05 µg/mL

Compound: O=c1[nH]c(=O)n([C@H]2C[C@H](O)[C@@H](CO)O2)cc1C(F)(F)F [trifluorothymidine]
- lowering of the inhibition concentration compared with applications without quaternary ammonium bases [7]: 30%

Compound: Cetyl-2,3-dihydroxy-propyl-hexadecyl-pyridinium
- <RH> hydrodynamic radius [2]: 150.0 and 180.4 and 210.4 and 120.0

Compound: Dodecyl-pyrimidinium
- cmc × 10^-6 M ([1]; Table 2, HET≡N+-(CH2)x-CH3 Y-): 1.20 × 10^-6 M

Compound: Hexadecyl-4-Hydroxy-pyridinium
- cmc × 10^-6 M ([1]; Table 2, HET≡N+-(CH2)x-CH3 Y-): 0.95 × 10^-6 M

Compound: Hexadecyl-pyrimidinium
- cmc × 10^-6 M ([1]; Table 2, HET≡N+-(CH2)x-CH3 Y-): 2.50 × 10^-6 M

Compound: N-Hexadecyl-4-cetyl-imidazolinium
- <RH> hydrodynamic radius [2]: 100 and 150

Compound: erythro-9-(2-hydroxy-3-nonyl)-adenine
- intensification of the antitumor activity (adenosine-desaminase): tenfold

Compound: polymyxin B
- plasma half life [8]: 4.5 h
